# pEC50, pKd: −log10 of the molar value.
# System: A375 cells
# Test: A375 cell immunofluorescence assay (with 1 μM S1152 and 0.5 μM S1008), EC50
# Format: cell-based
# Details: 1 μM S1152 + 0.5 μM S1008, one day, ratio FL2/FL3 staining (sc-365823 antibody)
# Summary of the method: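 A375 cells were treated for 1 day with 1 μM S1152, 0.5 μM S1008 and compound dose ranges in DMEM/10% FCS/2 mM glutamine, then fixed, permeabilized and immunostained (secondary antibody 2 μg/ml). FL2 (500-530 nm) signal was measured in propidium iodide-defined objects (FL3, 565-600 nm). The normalized ln FL2/ln FL3 ratio was log-transformed, and EC50 came from a 4-parameter fit.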
row,SMILES,pEC50
1,CCC(=O)N1CCCC(c2nc(Nc3cccc(F)c3)cc(-c3cncc(C(=O)NC)c3)n2)C1 (centres unmarked),5.00 to 6.00
2,CC(=O)N1CCCC(c2nc(Nc3ccc(C)c(C)c3)cc(-c3cccnc3)n2)C1 (centres unmarked),> 6.00
3,CCC(=O)N1CCCC(c2nc(Nc3cccc(F)c3)cc(-c3c(C)noc3C)n2)C1 (centres unmarked),5.00 to 6.00
4,CC(=O)N1C[C@H](c2nc(Nc3cncc(C)c3)cc(-c3cccnc3)n2)CC[C@@H]1C,> 6.00
5,CNC(=O)N1CCCC(c2nc(Nc3cccc(F)c3)cc(-c3cccnc3)n2)C1 (centres unmarked),5.00 to 6.00
6,CC(=O)N1C[C@H](c2nc(Nc3ccccc3)cc(-c3cncc4[nH]ccc34)n2)CC[C@@H]1C,> 6.00
7,CC(=O)N1CC(OCc2ccccc2)CC(c2nc(Nc3cccc(F)c3)cc(-c3cccnc3)n2)C1 (centres unmarked),5.00 to 6.00
8,CC(=O)N1CC(c2nc(Nc3cccc(F)c3)cc(-c3cccnc3)n2)Cc2ccccc21 (centres unmarked),< 5.00
9,CCC(=O)N1CCCC(c2nc(Nc3cc(OC)cc(OC)c3)cc(-c3cccnc3)n2)C1 (centres unmarked),5.00 to 6.00
10,CC(=O)N1CC(c2cc(Nc3cccc(F)c3)cc(-c3cccnc3)n2)CCC1C (centres unmarked) [drawing 690],5.00 to 6.00
11,O=C(CC(F)(F)F)N1CCCC(c2nc(Nc3cccc(F)c3)cc(-c3cccnc3)n2)C1 (centres unmarked),< 5.00
12,CCC(=O)N1CCCC(c2nc(Nc3cccc(F)c3)cc(NC3CCOC3)n2)C1 (centres unmarked),< 5.00
13,CCC(=O)N1CCCC(c2nc(Oc3cccc(F)c3)cc(-c3cccnc3)n2)C1 (centres unmarked),< 5.00
14,CCC(=O)N1CCCC(c2nc(Nc3cccc(F)c3)cc(-c3ccccc3NC(C)=O)n2)C1 (centres unmarked),< 5.00
15,CC(=O)N1CC(C)CC(c2nc(Nc3cccc(F)c3)cc(-c3cccnc3)n2)C1 (centres unmarked),> 6.00
16,CC(=O)N1C[C@H](c2nc(Nc3ccncc3)cc(-c3cccnc3)n2)CC[C@@H]1C,> 6.00
17,CC(=O)N1CCCC(c2cc(Nc3cccc(F)c3)cc(-c3cccnc3)n2)C1 (centres unmarked),5.00 to 6.00
18,COc1cncc(-c2cc(Nc3cccc(F)c3)cc(C3CCCN(C(C)=O)C3)n2)c1 (centres unmarked),5.00 to 6.00
19,COc1cncc(-c2cc(Nc3cccc(C(F)F)c3)nc(C3CCCN(C(C)=O)C3)n2)c1 (centres unmarked),5.00 to 6.00

# Molecular target: T1, TRIM33(PHD, Bromo.) (Homo sapiens, UniProt Q9UPN9)
# T1 construct: TRIM33(PHD, Bromo.)
# T1 sequence (Q9UPN9 1-1127): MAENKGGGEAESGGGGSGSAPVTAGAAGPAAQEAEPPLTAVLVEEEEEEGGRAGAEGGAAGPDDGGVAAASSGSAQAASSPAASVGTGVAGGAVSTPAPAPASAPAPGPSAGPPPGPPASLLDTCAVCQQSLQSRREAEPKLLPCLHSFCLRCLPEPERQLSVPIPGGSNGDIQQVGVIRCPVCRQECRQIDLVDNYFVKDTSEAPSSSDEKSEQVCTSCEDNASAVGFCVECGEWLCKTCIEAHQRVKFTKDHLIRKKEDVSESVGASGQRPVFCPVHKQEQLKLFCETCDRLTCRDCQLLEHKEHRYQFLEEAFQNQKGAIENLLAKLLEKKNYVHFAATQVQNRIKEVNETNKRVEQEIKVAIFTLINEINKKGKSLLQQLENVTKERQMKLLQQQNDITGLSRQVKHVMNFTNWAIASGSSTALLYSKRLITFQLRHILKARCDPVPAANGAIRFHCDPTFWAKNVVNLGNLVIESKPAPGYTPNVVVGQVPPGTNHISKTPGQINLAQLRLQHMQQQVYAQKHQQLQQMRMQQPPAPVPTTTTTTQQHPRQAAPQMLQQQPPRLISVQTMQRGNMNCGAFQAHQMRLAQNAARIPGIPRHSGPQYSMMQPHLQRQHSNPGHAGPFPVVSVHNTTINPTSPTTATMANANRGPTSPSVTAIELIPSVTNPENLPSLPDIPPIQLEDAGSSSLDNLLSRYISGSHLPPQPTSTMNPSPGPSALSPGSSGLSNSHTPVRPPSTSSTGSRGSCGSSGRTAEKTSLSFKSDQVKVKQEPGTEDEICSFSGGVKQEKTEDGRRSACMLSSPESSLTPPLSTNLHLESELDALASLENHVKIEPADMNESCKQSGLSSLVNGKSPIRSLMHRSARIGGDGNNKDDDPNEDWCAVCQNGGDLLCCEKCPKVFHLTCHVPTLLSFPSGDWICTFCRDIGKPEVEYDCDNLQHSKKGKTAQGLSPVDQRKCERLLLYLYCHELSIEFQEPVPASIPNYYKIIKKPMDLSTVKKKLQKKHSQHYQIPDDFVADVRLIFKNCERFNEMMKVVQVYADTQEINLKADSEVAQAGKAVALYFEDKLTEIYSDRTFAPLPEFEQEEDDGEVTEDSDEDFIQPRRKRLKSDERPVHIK
# Test: BromoKdMAX (BROMOscan) TRIM33(PHD, Bromo.)
# Format: binding
# Details: TRIM33(PHD, Bromo.) (Entrez TRIM33)
# Method: A BromoKdMAX was performed at DiscoverX.
# BROMOscan™ is a novel industry leading platform for identifying small molecule bromodomain inhibitors. Based on proven KINOMEscan™ technology, BROMOscan™ employs a proprietary ligand binding site-directed competition assay to quantitatively measure interactions between test compounds and bromodomains. This robust and reliable assay panel is suitable for high throughput screening and delivers quantitative ligand binding data to facilitate the identification and optimization of potent and selective small molecule bromodomain inhibitors.
# For the Bromodomain assays, T7 phage strains displaying bromodomains were grown in parallel in 24-well blocks in an E. coli host derived from the BL21 strain. E. coli were grown to log-phase and infected with T7 phage from a frozen stock (multiplicity of infection=0.4) and incubated with shaking at 32° C. until lysis (90-150 minutes). The lysates were centrifuged (5,000×g) and filtered (0.2 μm) to remove cell debris. […] The liganded beads were blocked with excess biotin and washed with blocking buffer (SeaBlock (Pierce), 1% BSA, 0.05% Tween 20, 1 mM DTT) to remove unbound ligand and to reduce non-specific phage binding. […] Kds were determined using an 11-point 3-fold compound dilution series with one DMSO control point. […] The bromodomain concentration in the eluates was measured by qPCR.
row,SMILES,pKd
1,"COc1cncc(-c2cc(Nc3cccc(F)c3)nc([C@@H]3CC[C@H](C)N(C(C)=O)C3)n2)c1 [Compound 00212, (−)-1-((2S,5R)-5-(4-((3-fluorophenyl)amino)-6-(5-methoxypyridin-3-yl)pyrimidin-2-yl)-2-methylpiperidin-1-yl)ethan-1-one]",< 5.00

# Reference: US20230067929A1, “HETEROCYCLIC DERIVATIVES, PHARMACEUTICAL COMPOSITIONS AND THEIR USE IN THE TREATMENT, AMELIORATION OR PREVENTION OF CANCER” (Tolremo Therapeutics AG, priority 2018, published 2023)
